Measured values as given in patent US20130143929A1, “FUNGICIDAL IMIDAZOLES” (EI DU PONT DE NEMOURS AND COMPANY, priority 2010, published 2013).
Marks after values point to notes of the source that are not given here.

Tests used:
Assay type in all cases: in vivo
[1] = system: Blumeria graminis f. sp. tritici (also known as Erysiphe graminis f. sp. tritici, the causal agent of wheat powdery mildew); test: Test D: wheat powdery mildew, preventive spray on wheat seedlings, visual disease rating; conditions: wheat powdery mildew, preventive spray on wheat seedlings
Outline: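 Preventive test: seedlings sprayed to run-off and inoculated with powdery mildew spores one day later. Suspensions were made in 50/50 acetone/water with 250 ppm Trem 014 surfactant (200 ppm equals 800 g/ha). Visual ratings after 8 days at 20 °C give percent disease control versus controls.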

[2] = system: Puccinia recondite f. sp. tritici (the causal agent of wheat leaf rust); test: Test A: wheat leaf rust, preventive spray on wheat seedlings, visual disease rating; conditions: wheat leaf rust, preventive spray on wheat seedlings
Outline: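 This was a preventive test: Puccinia recondite f. sp. tritici inoculum was applied one day after compound spray to run-off. Test suspensions were made in 50/50 acetone/water with 250 ppm surfactant, at 200 ppm (800 g/ha equivalent) or 40 ppm. Visual ratings of % disease control relative to controls were made after 24 h of saturated humidity and 7 growth-chamber days, all at 20° C.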

[3] = system: Botrytis cinerea (the causal agent of tomato Botrytis); test: Test C: tomato Botrytis, preventive spray on tomato seedlings, visual disease rating; conditions: tomato Botrytis, preventive spray on tomato seedlings
Outline: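 Preventive test: B. cinerea spore inoculation one day after tomato seedlings were sprayed to run-off with compound suspended in 50/50 acetone–water plus 250 ppm surfactant. Plants held 48 h at 20° C in saturated air, then 3 days at 24° C; visual ratings scored 100 (full control) to 0 versus controls; some entries used 40 ppm.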

[4] = system: Septoria tritici (the causal agent of wheat leaf blotch); test: Test B: wheat leaf blotch, preventive spray on wheat seedlings, visual disease rating; conditions: wheat leaf blotch, preventive spray on wheat seedlings
Outline: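 Preventive test: Septoria tritici spores applied one day after run-off spraying of seedlings (200 ppm equals 800 g/ha; some tests 40 ppm). After 48 h at 24 °C saturated atmosphere and 19 days at 20 °C, disease scored visually as % control relative to untreated plants.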

[5] = asterisk: 40 ppm test suspension
[6] = no asterisk (standard test suspension concentration, not 40 ppm)

SMILES | Test D rating (100 = 100% disease control, 0 = no disease control relative to the controls) [1, 5] | Test A rating (100 = 100% disease control, 0 = no disease control relative to the controls) [2, 5] | Test C rating (100 = 100% disease control, 0 = no disease control relative to the controls) [3, 5] | Test B rating (100 = 100% disease control, 0 = no disease control relative to the controls) [4, 5] | Test D rating (100 = 100% disease control, 0 = no disease control relative to the controls) [1, 6] | Test A rating (100 = 100% disease control, 0 = no disease control relative to the controls) [2, 6] | Test C rating (100 = 100% disease control, 0 = no disease control relative to the controls) [3, 6] | Test B rating (100 = 100% disease control, 0 = no disease control relative to the controls) [4, 6]
COc1ccc(C(O)c2c(Cl)nc(C)n2-c2c(F)cccc2F)c(F)c1 (stereo not drawn) [compound 56] | 13* % | 100* % | 100* % | 100* % | – | – | – | –
Cc1ncc(C(O)c2ccc(Cl)cc2)n1-c1ccc(F)cc1Cl (stereo not drawn) [compound 57] | – | – | – | – | 0% | 96% | 34% | 100%
Cc1nc(Cl)c(C(O)c2ccc(F)cc2F)n1-c1ccc(F)cc1Cl (stereo not drawn) [compound 58] | – | – | – | – | 72% | 100% | 100% | 100%
Cc1nc(Cl)c(C(O)c2ccc(Cl)cc2)n1-c1ccc(F)cc1Cl (stereo not drawn) [compound 59] | – | – | – | – | 73% | 100% | 99% | 100%
Cc1nc(Br)c(C(O)c2ccc(Cl)cc2)n1-c1ccc(F)cc1Cl (stereo not drawn) [compound 60] | – | – | – | – | 73% | 100% | 99% | 100%
OC(c1ccc(F)cc1F)c1c(Br)ncn1-c1ccc(F)cc1Cl (stereo not drawn) [compound 63] | – | – | – | – | 0% | 96% | 98% | 59%
Cc1nc(Cl)c(C(O)c2ccc(F)cc2Cl)n1-c1c(F)cc(F)cc1Cl (stereo not drawn) [compound 64] | 93* % | 100* % | 99* % | 100* % | – | – | – | –
OC(c1ccc(F)cc1F)c1c(Br)nc(Br)n1-c1ccc(F)cc1Cl (stereo not drawn) [compound 65] | 64* % | 100* % | 100* % | 100* % | – | – | – | –
Cc1nc(Cl)c(C(O)c2ccc(Cl)cc2Cl)n1-c1c(F)cc(F)cc1Cl (stereo not drawn) [compound 66] | 69* % | 100* % | 99* % | 100* % | – | – | – | –
Cc1nc(Cl)c(C(O)c2ccc(F)cc2Br)n1-c1c(F)cccc1Br (stereo not drawn) [compound 68] | – | – | – | – | 96% | 100% | 100% | 100%
Cc1nc(Cl)c(C(O)c2ccc(F)cc2Br)n1-c1c(F)cc(F)cc1Br (stereo not drawn) [compound 70] | 43* % | 100* % | 99* % | 100* % | – | – | – | –
OC(c1ccc(F)cc1Br)c1c(Cl)nc(C2CC2)n1-c1c(F)cccc1Br (stereo not drawn) [compound 72] | – | – | – | – | 43% | 79% | 0% | 100%
Cc1ncc(C(O)c2ccc(F)cc2Cl)n1-c1c(F)cccc1Br (stereo not drawn) [compound 73] | – | – | – | – | 0% | 100% | 99% | 100%
Cc1ncc(C(O)c2ccc(F)cc2Cl)n1-c1c(F)cc(F)cc1Br (stereo not drawn) [compound 74] | – | – | – | – | 0% | 100% | 100% | 100%
OC(c1ccc(F)cc1Cl)c1cnc(C2CC2)n1-c1c(F)cccc1Br (stereo not drawn) [compound 75] | – | – | – | – | 0% | 94% | 0% | 1%
Cc1nc(Cl)c(C(O)c2ccc(F)cc2Cl)n1-c1c(F)cc(Br)cc1F (stereo not drawn) [compound 76] | 0* % | 99* % | 0* % | 100* % | – | – | – | –
Cc1cc(F)ccc1C(O)c1c(Cl)nc(Cl)n1-c1ccc(F)cc1F (stereo not drawn) [compound 77] | – | – | – | – | 95% | 100% | 94% | 100%
Cc1cc(F)ccc1C(O)c1cnc(C)n1-c1c(F)cccc1F (stereo not drawn) [compound 80] | – | – | – | – | 0% | 99% | 0% | 100%
